# Counter-ions that a name gives are not always drawn. Like-named read-outs stand apart in the source and are kept apart here.
# Experiments:
# [1] = from reference 15; cited from earlier work
# [2] = aqueous solubility in ddH2O; format: physicochemical; details: water
# Text: Furthermore, we discovered a novel compound that can potentiate 666-15's inhibitory effect against CREB-mediated gene transcription in living cells.
# The synthesis of compound 3 is presented in Scheme 1. […] Under the coupling conditions we used before (BOP, DIPEA, room temperature),^13 a mixture of compositional isomers 6 and 7 (2-(3-(3-((tert-butoxycarbonyl)amino)propoxy)-2-naphthamido)-5-chlorophenyl 3-(2-((tert-butoxy carbonyl)amino)ethoxy)-2-naphthoate) involving acyl group swapping was obtained. These two isomers were only partially separable by conventional silica gel column chromatograph. […] The formation of the unanticipated alternative ester 7 was likely a result of generation of imide intermediate 8 (2-(3-(2-((tert-butoxycarbonyl)amino)ethoxy)-2-naphthamido)-5-chloro-3-hydroxyphenyl 3-(3-((tert-butoxycarbonyl) amino)propoxy)-2-naphthoate) although it was not detected from the reaction mixture. The intermediate 8 could be generated either before the formation of 6 (2-(3-(2-((tert-butoxycarbonyl) amino)ethoxy)-2-naphthamido)-5-chlorophenyl 3-(3-((tert-butoxycarbonyl)amino) propoxy)-2-naphthoate) or after 6 was formed. Once 8 was produced, it could generate either 6 or 7 through an ester bond formation (Scheme 1). […] The Boc groups (tert-butyloxycarbonyl protecting groups) in 6 were then deprotected under acidic condition (HCl, DCM) to give 3 uneventfully. […]
# [3] = stability of stock solution in DMSO; format: physicochemical; details: long-term storage of stock solution
# [4] = conversion of ester 3 in complete cell culture media (DMEM with 10% FBS), HPLC; format: in vitro ADME; details: 37° C.
# Procedure: With the desired compound 3 in hand, we first investigated the possibility of transformation of 3 into 666-15 in the complete cell culture media (Dulbecco's Modified Eagle Medium with 10% fetal bovine serum (FBS)). […] In stark contrast to the structural congener 2,^15 only a small amount of 666-15 was generated under the reaction condition. In order to investigate if simple ester hydrolysis was occurring to generate products 9 and 10 (FIG. 2A), we compared the main peaks eluted at 10.5 min and 11.2 min with standard samples of 9 and 10 by HPLC.
# Compound 3 (200 μM) was incubated with complete tissue culture media (DMEM with 10% FBS) at 37° C. for various time periods. An aliquot of 10 μl was taken at a given time point and mixed with acetonitrile (90 μL). The mixture was centrifuged at 14,000×rpm for 5 min at room temperature in a tabletop centrifuge to precipitate proteins. The supernatant was collected and analyzed by HPLC eluting with a linear of water and acetonitrile, both of which contained 0.1% TFA.
# [5] = tested on: CREB-mediated gene transcription; assay: CREB transcription renilla luciferase reporter assay in HEK 293T cells; format: cell-based; details: for IC50: Homo sapiens; for combination index (CI) in inhibiting CREB-mediated gene transcription: Chou-Talalay; for effect of combination with 666-15 on inhibition of CREB-mediated gene transcription: compound combined with 666-15
# Procedure: ^a The IC50 refers to the concentration needed to inhibit 50% of the CREB-mediated gene transcription in HEK 293T cells using a transcription renilla luciferase reporter assay. The data are presented as mean±standard deviation (SD) of at least two independent experiments, which were performed in triplicates.
# To test this possibility, we employed a transcription luciferase reporter assay in HEK 293T cells.^22 Briefly, the cells were transfected with a CREB renilla luciferase reporter plasmid (CRE-RLuc). This plasmid expresses renilla luciferase under the control of three tandem copies of CRE in the promoter region.
# Inhibition of CREB-mediated gene transcription. HEK 293T cells were transfected with CRE-RLuc. Then the cells were treated with increasing concentrations of individual compounds (FIG. 2A) or drug combinations (FIG. 2B) for 30 min before the addition of Fsk (10 μM) for 5 h. The renilla luciferase activity was normalized to the protein concentration in each well and expressed as relative luciferase unit (RLU)/μg protein. The errors are SEM from one representative experiment in triplicate.
# HEK293T cells in a well of 6-well plate were transfected with a plasmid (1 μg) encoding renilla luciferase under the control of three copies of CRE (pCRE-RLuc) using Lipofectamin^2000 (Life Technologies) for 3 h. Then the cells were replated into a 96-well plate and the cells were allowed to attach to the bottom of the plate for overnight. The cells were treated with different concentrations of the compounds for 30 min, when Fsk (10 μM) was added to the cells. The cells were further incubated for 5 h at 37° C. The media were removed and the cells were lysed in 30 μl 1× renilla luciferase lysis buffer (Promega) and the renilla luciferase activity was measured using the renilla luciferase assay system (Promega). The protein concentration in each well was determined using the Protein Assay Dye Reagent Concentrate (Bio-rad). The luciferase activity in each well was normalized to the protein concentration and expressed as relative luciferase unit (RLU)/μg protein. The IC50 was calculated in Prism 5.0 using the non-linear regression analysis.
# MDA-MB-231 cells = assay: cell growth inhibition MTT assay; format: cell-based
# Procedure: Then the viable cells were quantified by the MTT reagent. […] The data are presented as mean+SEM. The SEM was from one representative experiment performed in duplicates.
# The cells were plated in 96-well plates at 1,000 cells/well and allowed to attach to the bottom of the plate for overnight. Then the cells were treated with different concentrations of compounds for 72 h at 37° C. At the end of treatment, the viable cells were determined by incubating cells with MTT reagent (0.5 mg/mL) in the complete tissue culture media for 3 h. Then the media were removed and the formed purple formazan was dissolved in DMSO for quantification by absorbance at 570 nm using a SpectraMax i3 plate reader (Molecular Devices). The percent of growth is defined as 100×(Atreated−Ainitial)/(Acontrol−Ainitial), where Atreated represents absorbance in wells treated with a compound, Ainitial represents the absorbance at time 0, and Acontrol denotes media-treated cells.
# NR4A2 = assay: endogenous CREB target gene expression by qRT-PCR in HEK 293T cells; format: cell-based; details: Fsk-stimulated HEK 293T cells
# Procedure: Then the cells were subjected to qRT-PCR analysis after the total RNA was isolated using HPRT as a reference gene.
# Then the cells were stimulated with Fsk (10 μM) for 45 min. The total RNA was isolated using NucleoSpin® RNA isolation kit (Takara Bio). Following RNA isolation, the first strand cDNA was synthesized using PrimeScript™ 1st strand cDNA synthesis kit (Takara Bio) with random hexamers as the primers. Quantitative PCR reactions were performed with TB Green® Advantage® qPCR Premix (Takara Bio). The relative mRNA level was determined with double delta Ct method using HPRT as a reference gene.
# KIX-KID interaction = KIX-KID interaction (Homo sapiens, UniProt Q92793); assay: split renilla luciferase complementation assay of KIX-KID interaction; format: cell-based
# KIX-KID interaction, sequence (Q92793 587-666 limits assumed): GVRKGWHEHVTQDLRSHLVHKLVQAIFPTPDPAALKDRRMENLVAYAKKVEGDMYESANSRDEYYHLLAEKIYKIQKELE
# [6] = HEK 293T cells, CRE-RLuc reporter, Fsk stimulated, mean ± SD of at least two independent experiments, read-out: CREB inhibition (IC50)
smiles,measurement,setting,value
"NCCCOc1cc2ccccc2cc1C(=O)Oc1cc(Cl)ccc1NC(=O)c1cc2ccccc2cc1OCCN (as salt: hydrochloride) [Compound 3, 2-(3-(2-Aminoethoxy)-2-naphthamido)-5-chlorophenyl 3-(3-Aminopropoxy)-2-naphthoate Dihydrochloride]",melting point,,216 to 217 °C
"NCCCOc1cc2ccccc2cc1C(=O)Nc1ccc(Cl)cc1OC(=O)c1cc2ccccc2cc1OCCCN [Compound 2, 2-(3-(3-aminopropoxy)-2-naphthamido)-5-chlorophenyl 3-(3-aminopropoxy)-2-naphthoate]",aqueous solubility in ddH2O,[1],> 100 mg/mL
"NCCCOc1cc2ccccc2cc1C(=O)Oc1cc(Cl)ccc1NC(=O)c1cc2ccccc2cc1OCCN [Compound 3, 2-(3-(2-Aminoethoxy)-2-naphthamido)-5-chlorophenyl 3-(3-Aminopropoxy)-2-naphthoate Dihydrochloride]",solubility,[2],> 100 mg/mL
same,stability in DMSO,[3],unstable in DMSO for long-term storage
same,conversion in complete cell culture media,[4],rapidly converted into four new product peaks
same,IC50,"[5]; HEK-293T, read-out: CREB inhibition (IC50, μM)",0.25 ± 0.11 µM
"NCCCOc1cc2ccccc2cc1C(=O)Nc1ccc(Cl)cc1O [Compound 11, 3-(3-aminopropoxy)-N-(4-chloro-2-hydroxyphenyl)-2-naphthamide]",combination index (CI) of anti-proliferative effect,"MDA-MB-231 cells; 11 (0.5 or 1.0 μM) combined with 666-15, 72 h",less than 1.0
same,antiproliferative effect (cell growth),"MDA-MB-231 cells; 11 alone, 0.5 or 1.0 μM, 72 h",did not appreciably inhibit the cell growth
same,expression level of NR4A2,NR4A2; 666-15 (50 nM) combined with compound 11 (5 μM),significant inhibition of NR4A2 transcription was observed
same,expression level of NR4A2,"NR4A2; compound 11 alone, 5 μM",did not inhibit the expression of NR4A2
same,IC50,KIX-KID interaction,> 50 µM
same,combination index (CI) in inhibiting CREB-mediated gene transcription,[5]; 11 (5 μM) combined with 666-15 0.01 μM,2.87
same,combination index (CI) in inhibiting CREB-mediated gene transcription,[5]; 11 (5 μM) combined with 666-15 0.05 μM,0.31
same,combination index (CI) in inhibiting CREB-mediated gene transcription,[5]; 11 (5 μM) combined with 666-15 0.1 μM,0.17
same,combination index (CI) in inhibiting CREB-mediated gene transcription,[5]; 11 (5 μM) combined with 666-15 0.5 μM,0.37
same,combination index (CI) in inhibiting CREB-mediated gene transcription,[5]; 11 (5 μM) combined with 666-15 1.0 μM,0.56
same,combination index (CI) in inhibiting CREB-mediated gene transcription,[5]; 11 (5 μM) combined with 666-15 5.0 μM,2.41
same,effect of combination with 666-15 on inhibition of CREB-mediated gene transcription,[5]; HEK 293T cells,significantly potentiated activity of 666-15
same,IC50,[5]; [6],26.3 ± 13.6 µM
"O=C1NCCOc2cc3ccccc3cc21 [Compound 12, 3,4-dihydronaphtho[2,3-f][1,4]oxazepin-5(2H)-one]",melting point,,128 to 129 °C
same,CREB inhibition potency,"[5]; HEK 293T cells, compound alone",inactive
same,effect of combination with 666-15 on inhibition of CREB-mediated gene transcription,[5]; HEK 293T cells,did not produce further inhibition of CREB-mediated gene transcription
same,IC50,[5]; [6],> 50 µM
"NCCCOc1cc2ccccc2cc1C(=O)NCCOc1cc2ccccc2cc1C(=O)Nc1ccc(Cl)cc1O [Compound 666-15, 3-(3-aminopropoxy)-N-(2-((3-((4-chloro-2-hydroxyphenyl)carbamoyl)naphthalen-2-yl)oxy)ethyl)-2-naphthamide]",solubility,[2],< 0.5 mg/mL
